Assay results from US10875891B2, “Short synthetic peptide and uses thereof” (MacKay Memorial Hospital, priority 2018, dated 2020).
Entries after “also recorded” stand apart in the source; their conditions may differ. Where no end group is shown, it is not given here. [ ]: non-standard residue; d: D form.

How the values were obtained:
[1] = test system: Murine psoriasis vulgaris-like skin inflammation model; assay: IMQ-induced psoriasis vulgaris-like skin inflammation model, keratinocyte proliferation by BrdU incorporation; assay type: in vivo, BALB/c mice; details: 25 μM with IMQ cream, day 6; IMQ control 24.5±2.0; FIG. 9 panel B
Experimental: (§1) BALB/c mice (8-weeks old females; n=42) were used in this model system. […] Accordingly, in this model, each BALB/c mice received a daily topical dose (62.5 mg) of commercially available IMQ cream (Imiquimod Cream 5% w/w, Aldara™) on the shaved back and the right ear for 6 consecutive days (n=6); whereas the control mice (normal group) were treated with a control cream (n=6). For treatment, each test peptide was mixed with IMQ cream to give a concentration of 25 μM (n=6 per group). Keratinocyte proliferation was determined by BrdU incorporation. BrdU (Sigma-Aldrich) was reconstituted in DMSO as a stock solution of 80 mM. 10 μl of BrdU mixed with 90 μl of PBS was intraperitoneally injected into each mouse for 24 hr prior to euthanasia.
(§2) Slides were blocked with 10% goat serum for 60 min and then incubated with primary antibody against BrdU (1:50 dilution; GTX42641) for 3 hr at RT. The slides were then incubated with peroxidase-labeled donkey immunoglobulin for 30 min and then incubated with chromogen substrate (3,3′-diaminobenzidine) for 2 min before counterstaining with hematoxylin. Quantification was estimated based on high quality images (1208×960 pixels buffer) captured using a Nikon Eclipse 80i light microscope.

Murine dry eye model [2] = assay: Dry eye animal model, tear production by phenol red thread test; assay type: in vivo, C57BL/6 mice; details: treated for 4 days; P<0.01 versus vehicle treatment; FIG. 4
Experimental: (§3) C57BL/6 mice (7-8 weeks old, each weighted about 18 to 25 g) were used in this model system. All mice were maintained in the animal facility in accordance with the procedures approved by Mackay Memorial Hospital Review Board (Taiwan, R.O. C.). All animal experimental procedures were conducted according to the ARVO Statement for the Use of Animals in Ophthalmic and Vision Research.
(§4) Dry eyes were induced by placing mice in a controlled environment chamber (CEC) for 14 days in accordance with procedures previously described by Barabino et al (IVOS (2005) 46(8), 2766-2771). Mice placed in the CEC were exposed to a condition, in which relative humidity (RH) was maintained at <25%, temperature at 20-22° C., and airflow at about 15 L/min, for 12 hours per day. Control mice were kept in a normal environment (RH>50%, no air flow, temperature of 20-22° C.) for the same duration.
(§5) A common artificial tear formulation, 1% carboxymethylcelllulose (CMC) dissolved in balanced salt solution (BSS) was used as the peptide vehicle. Peptide (50 μM) or 1% CMC vehicle was topically administered to eyes three times a day, for 4 days.
Tear production was measured with phenol red-impregnated cotton threads (Zone-Quick; Oasis, Glendora, Calif.). The validity of this test in mice was performed as previously described (Dursun et al., Invest Ophthalmol Vis Sci. 2002; 43:632-8). The threads were held with jeweler forceps and placed in the lateral canthus for 60 seconds. The tear production expressed in millimeters of thread wet by the tear and turned red.

[3] = test system: Murine psoriasis vulgaris-like skin inflammation model; assay: IMQ-induced psoriasis vulgaris-like skin inflammation model, H&E histology of back skin; assay type: in vivo, BALB/c mice; details: 25 μM with IMQ cream, 6 days; IMQ control 122±10.5; FIG. 8 panel B
Experimental: as §1
Back skin of the mouse was fixed overnight in 4% paraformaldehyde, dehydrated with graded ethanol series, and paraffinized. Fixed samples were deparaffinized in xylene and rehydrated in a graded series of ethanol. Tissues were sliced into 5-μm sections. General histology was performed using hematoxylin and eosin (H&E) (Merck, Rayway, N.J., USA).
as §2

Murine dry eye model [4] = assay: Dry eye animal model, fluorescein eye stain test for corneal injuries; assay type: in vivo, C57BL/6 mice; details: peptide 50 μM topically three times a day for 4 days; for reduction in mean corneal fluorescein staining score compared with vehicle treated control mice: FIG. 3 panel B
Experimental: as §3, §4, §5
Corneal epithelial injury was determined by staining with topical fluorescein (100 mg/ml or 10%; FLUORESCITE™, Alcon Laboratories). For dosing, topical fluorescein (0.6 μL of 0.5% sodium fluorescein dissolved in 4.4 μL BSS per eye) was applied via a micro-pipette to the lateral canthus for 15 sec. Corneal fluorescein staining was examined with a slit-lamp biomicroscope under cobalt blue light and photographed with a digital camera. Data is presented as mean±SD. Dye staining of the cornea was scored in a blinded manner as follows: score 0 for no punctuate staining; score 1 when less than one third of the cornea was stained; score 2 when two thirds or less was stained; and score 3 when more than two thirds was stained.

myeloma RPMI 8226 cell = assay: MTT assay, cell viability; assay type: cell-based, human; details: 20 μM peptide, 24 h, serum-free RPMI1640; FIGS. 1-2
Experimental: The multiple myeloma line RPMI8226 or […] Raw264.7 macrophages were cultivated in complex medium (RPMI1640) supplemented with 10% (vol/vol) heat-inactivated fetal calf serum (Invitrogen), 50 μg/mL penicillin, 50 μg/mL streptomycin, and 2 mM L-glutamine at 37° C. in a 5% CO2 atmosphere
RPMI8226 cells or U266 cells were cultured in serum-free RPMI1640 medium for 24 h, and then cells seeded in 48-well culture plates (3×10^5 cells/well) and cultured in 0.5 ml fresh serum-free RPMI1640 medium containing 20 μM peptide for further 24 h. The cell viability was determined by the MTT assay.
50 μL of the MTT stock solution (5 mg MTT dissolved in 1 ml of sterile PBS) was added to each well, and 50 μL of the MTT stock solution was added to 500 μL of medium alone and used as a negative control. Each sample was Incubates at 37° C. for 4 hours. Aliquots (450 μl) from each sample were taken to a new well of 48-well culture plate, adding 100 μL DMSO, mixing thoroughly using the pipette and reacted at 37° C. for 20 min and absorbance was measured at 570 nm.

Row | Substance | tear volume (tear production) (Murine dry eye model [2]) | reduction in mean corneal fluorescein staining score compared with vehicle treated control mice (Murine dry eye model [4]) | myeloma RPMI 8226 cell viability (MTT assay) (myeloma RPMI 8226 cell) | also measured
1 | NH2-Asp-Ile-Thr-Tyr-Val-Arg-Leu-Lys-(D-Phe)-COOH (DITYVRLK[dF]; not fully specified (N-terminus, C-terminus); printed as NH2-Asp-Ile-Thr-Tyr-Val-Arg-Leu-Lys-(D-Phe)-COOH) [9-mer DF, 9-mer analogue, phenylalanine in D-form] | significantly increased | about 3 fold |  | hyperproliferation of keratinocytes, BrdU-positive cells in the epidermis (labeling index) [1]: 6.3±1.2%; acanthosis, quantified epidermal thickness [3]: 35.7±4.2 μm
2 | NH2-Ala-Ile-Thr-Tyr-Val-Arg-Leu-Lys-Phe-COOH (AITYVRLKF; not fully specified (N-terminus, C-terminus); printed as NH2-Ala-Ile-Thr-Tyr-Val-Arg-Leu-Lys-Phe-COOH) [9-mer Da, 9-mer analogue, aspartate replaced by alanine] | significantly increased | about 3 fold | sustain part of the inhibitory activity | 
3 | NH2-Asp-Ile-Thr-Tyr-Val-Arg-Leu-Lys-Ala-COOH (DITYVRLKA; not fully specified (N-terminus, C-terminus); printed as NH2-Asp-Ile-Thr-Tyr-Val-Arg-Leu-Lys-Ala-COOH) [9-mer Fa, 9-mer analogue, phenylalanine replaced by alanine] | significantly increased | about 3 fold | sustain part of the inhibitory activity | 
4 | NH2-Asp-Ile-Thr-Tyr-Val-Arg-Ala-Lys-Phe-COOH (DITYVRAKF; not fully specified (N-terminus, C-terminus); printed as NH2-Asp-Ile-Thr-Tyr-Val-Arg-Ala-Lys-Phe-COOH) [9-mer La, 9-mer analogue, leucine replaced by alanine] |  |  | loss of the inhibitory activity | 
5 | NH2-Asp-Ile-Thr-Tyr-Val-Arg-Leu-Ala-Phe-COOH (DITYVRLAF; not fully specified (N-terminus, C-terminus); printed as NH2-Asp-Ile-Thr-Tyr-Val-Arg-Leu-Ala-Phe-COOH) [9-mer Ka, 9-mer analogue, lysine replaced by alanine] |  |  | loss of the inhibitory activity | 
6 | NH2-Asp-Ala-Thr-Tyr-Val-Arg-Leu-Lys-Phe-COOH (DATYVRLKF; not fully specified (N-terminus, C-terminus); printed as NH2-Asp-Ala-Thr-Tyr-Val-Arg-Leu-Lys-Phe-COOH) [9-mer Ia, 9-mer analogue, isoleucine replaced by alanine] |  |  | loss of the inhibitory activity | 
7 | NH2-Asp-Ile-Thr-Tyr-Ala-Arg-Leu-Lys-Phe-COOH (DITYARLKF; not fully specified (N-terminus, C-terminus); printed as NH2-Asp-Ile-Thr-Tyr-Ala-Arg-Leu-Lys-Phe-COOH) [9-mer Va, 9-mer analogue, valine replaced by alanine] | significantly increased | about 3 fold | sustain part of the inhibitory activity | 
8 | NH2-Asp-Ile-Thr-Ala-Val-Arg-Leu-Lys-Phe-COOH (DITAVRLKF; not fully specified (N-terminus, C-terminus); printed as NH2-Asp-Ile-Thr-Ala-Val-Arg-Leu-Lys-Phe-COOH) [9-mer Ya, 9-mer analogue, tyrosine replaced by alanine] |  |  | loss of the inhibitory activity | 
9 | NH2-Lys-Ala-Phe-Asp-Ile-Thr-Tyr-Val-Arg-Leu-Lys-Phe-COOH (KAFDITYVRLKF; not fully specified (N-terminus, C-terminus); printed as NH2-Lys-Ala-Phe-Asp-Ile-Thr-Tyr-Val-Arg-Leu-Lys-Phe-COOH) [12-mer, 9-mer with additional 3 amino acid residues at the N-terminal] | significantly increased | about 3 fold | successfully suppressed myeloma RPMI 8226 cell viability; also recorded: effective in suppressing myeloma cell viability; also recorded: more potent at lower dose | hyperproliferation of keratinocytes, BrdU-positive cells in the epidermis (labeling index) [1]: 8.5±1.4%; acanthosis, quantified epidermal thickness [3]: 35.3±4.1 μm
10 | NH2-Ile-Thr-Tyr-Val-Arg-Leu-Lys-Ala-COOH (ITYVRLKA; not fully specified (N-terminus, C-terminus); printed as NH2-Ile-Thr-Tyr-Val-Arg-Leu-Lys-Ala-COOH) [8-mer, control 8-mer peptide, aspartate residue of the 9-mer deleted] |  |  |  | corneal fluorescein stain (corneal damage), result in words (Murine dry eye model [4]; vs vehicle): no such effect
11 | NH2-(D-Asp)-Ile-Thr-Tyr-Val-Arg-Leu-Lys-Phe-COOH ([dD]ITYVRLKF; not fully specified (N-terminus, C-terminus); printed as NH2-(D-Asp)-Ile-Thr-Tyr-Val-Arg-Leu-Lys-Phe-COOH) [9-mer DD, 9-mer analogue, aspartate replaced by D-form aspartate] |  |  |  | hyperproliferation of keratinocytes, BrdU-positive cells in the epidermis (labeling index) [1]: 23.3±2.5%
12 | NH2-Asp-Ile-Ala-Tyr-Val-Arg-Leu-Lys-Phe-COOH (DIAYVRLKF; not fully specified (N-terminus, C-terminus); printed as NH2-Asp-Ile-Ala-Tyr-Val-Arg-Leu-Lys-Phe-COOH) [9-mer Ta, 9-mer analogue, threonine replaced by alanine] |  |  | loss of the inhibitory activity | 
13 | NH2-Asp-Ile-Thr-Tyr-Val-Ala-Leu-Lys-Phe-COOH (DITYVALKF; not fully specified (N-terminus, C-terminus); printed as NH2-Asp-Ile-Thr-Tyr-Val-Ala-Leu-Lys-Phe-COOH) [9-mer Ra, 9-mer analogue, arginine replaced by alanine] |  |  | loss of the inhibitory activity | 
